In patent US12427192B2, “Water soluble adjuvant and composition containing same” (Sumitomo Pharma Co., Ltd., priority 2019, dated 2025):

Test system: HLA-A*24:02 transgenic mouse
Assay: Test 3: in vivo CTL induction, cocktail vaccine b, IFNγ ELISPOT
Conditions: FIG. 1; for CTL counts responsive to Peptide SEQ ID No. 2 on adding the compound to cocktail vaccine b: vs cocktail vaccine b alone, 100 ng Example 1 or 69 ng Reference example 12 per body, intradermal, twice
Experimental: Evaluation of In Vivo CTL Induction in HLA-A*24:02 Transgenic Mouse
The in vivo adjuvant activity of the compound of Example 1 and the compound of Reference example 12 was evaluated in the following procedure. To a cocktail vaccine comprising Compound of formula 4 prepared in Reference example 8 and Peptide SEQ ID No. 3 prepared in Reference example 3 with Montanide ISA 51 V (hereinafter, referred to as “cocktail vaccine b”) was added the compound prepared in Example 1 or the compound prepared in Reference example 12 respectively to prepare each vaccine. The vaccine was administered to a HLA-A*24:02 transgenic mouse, and the adjuvant activity of each vaccine was evaluated by the method of testing antigen-specific cytotoxic T-lymphocyte (CTL) induction.
The CYTWNQMNL (SEQ ID No. 2) in Compound of formula 4 corresponds to an antigen peptide derived from an HLA-A*24:02-restricted WT1 protein.
HLA-A*24:02 transgenic mouse (C57BL/6CrHLA-A2402/K^b) expresses a chimeric HLA of a human MHC (HLA-A*24:02) and a mouse MHC (H-2K^b). The mouse can induce CTLs with a peptide which can induce CTLs in HLA-A*24:02-positive human (Int J Cancer. 2002; 100: 565-70).
The character for inducing CTLs specific to the peptide (SEQ ID No. 2) by cocktail vaccine b was evaluated by measuring whether IFNγ can be produced upon stimulation of splenocytes from the mouse with the peptide (SEQ ID No. 2). In addition, the character for exerting in vivo adjuvant activity by the compound in Example 1 or the compound in Reference example 12 was evaluated by comparing the number of CTLs induced by cocktail vaccine b and the number of CTLs induced by the vaccine prepared by adding the compound prepared in Example 1 or the compound in Reference example 12 to cocktail vaccine b, and checking presence or absence of the increase on the number.
Specifically, Compound of formula 4 and Peptide SEQ ID No. 3 were dissolved in DMSO, and then diluted with water for injection to concentrations of Compound of formula 4 of 6 mg/ml and Peptide of SEQ ID No. 3 of 4.5 mg/ml. […]

Row | Structure (SMILES) | CTL counts responsive to Peptide SEQ ID No. 2 on adding the compound to cocktail vaccine b | increase of the CTL counts (Peptide SEQ ID No. 2) compared with Reference example 12 (added to cocktail vaccine b, 100 ng Example 1 vs 69 ng Reference example 12 per body)
1 | CCCCCNc1nc(N)nc(C)c1Cc1ccc(CNC)cc1OC [Reference example 12, 5-({2-methoxy-4-[(methylamino)methyl]phenyl}methyl)-6-methyl-N^4-pentylpyrimidine-2,4-diamine, reference compound] | increased | 
2 | CCCCCNc1nc(N)nc(C)c1Cc1ccc(CN(C)CCOCCOCCOCCOCCO)cc1OC [Example 1, 1-(4-{[2-amino-4-methyl-6-(pentylamino)pyrimidin-5-yl]methyl}-3-methoxyphenyl)-2-methyl-5,8,11,14-tetraoxa-2-azahexadecan-16-ol·trifluoroacetate] | increased | more
